Among the data in ChEMBL document CHEMBL1141556, “Structural insights into hydroxycoumarin-induced apoptosis in U-937 cells” (Bioorg Med Chem, 2008) are Activity, IC50 and CC50 values, retold here.

Structures are written as SMILES. Where “and” joins values, the source holds several entries; their conditions need not be identical. Equal values may be shown once. Calls of active or inactive are those of the source. The rule behind the calls is not given here.

The test system of assay [1] is U-937. Nature of the assay: Induction of apoptosis in human U937 cells at 250 uM after 24 hrs. It is filed as functional.
The subject of assay [2] is U-937. Nature of the assay: Growth inhibition of human U937 cells by [3H]thymidine incorporation assay. Type of assay: functional, cell-based.
The test system of assay [3] is U-937. Nature of the assay: Cytotoxicity against human U937 cells by trypan blue assay after 48 hrs. Type of assay: functional. Particulars: U-937, 48 h.
Assay [4] relates to U-937. Nature of the assay: Effect on DNA fragmentation in human U937 cells assessed as ladder-like pattern at 2 mM after 24 hrs. Type of assay: functional, cell-based.
The subject of assay [5] is U-937. Nature of the assay: Reversal of induction of apoptosis in human U937 cells at 250 uM in presence of 10 mM NAC added every 8 hrs for 24 hrs. Type of assay: functional, cell-based.
The test system of assay [6] is U-937. Nature of the assay: Reversal of proapoptotic effect in human U937 cells assessed as inhibition of ladder-like pattern at 250 uM in presence of 10 mM NAC added every 8 hrs for 24 hrs. Type of assay: functional, cell-based.
The subject of assay [7] is U-937. Nature of the assay: Induction of DNA fragmentation in human U937 cells at 2 mM after 24 hrs. It is filed as functional, cell-based.

Compound `COc1ccc2c(C)cc(=O)oc2c1` [HYMECROMONE METHYL ETHER] had an Activity with U-937 [1] of 4%. In addition, the IC50 in the assay on U-937 [2] (Homo sapiens, U-937) is greater than 2000 µM. In the assay with U-937 [3], this compound showed a CC50 greater than 2000 µM.

For the compound `Cc1cc(=O)oc2cc(O)ccc12` [HYMECROMONE], the Activity in the assay on U-937 [1] is 5.2% and 4.7%. For the same compound, the outcome in the assay with U-937 [4] was Active. This compound yielded an IC50 in the assay with U-937 [2] (u-937) greater than 2000 µM. The compound also showed a CC50 in the assay on U-937 [3] greater than 2000 µM.

Take `O=c1ccc2ccccc2o1` [COUMARIN]: the Activity in the assay with U-937 [1] is given as 2.6%. For the same compound, the IC50 in the assay on U-937 [2] (Homo sapiens, U-937) was greater than 2000 µM. In the assay on U-937 [3], this compound came in with a CC50 greater than 2000 µM.

In the assay with U-937 [1], `COc1cc2ccc(=O)oc2cc1O` [SCOPOLETIN] showed an Activity of 6.3%. The outcome in the assay with U-937 [4] was Active. In the assay on U-937 [2] (Homo sapiens, U-937), this compound yielded an IC50 of 152 µM. This compound also showed a cytotoxic concentration (CC50) in the assay with U-937 [3] of 600 µM.

In the assay on U-937 [1], `O=c1oc2ccccc2cc1O` [3-HYDROXYCOUMARIN] gave an Activity of 5.3%. The same compound showed an IC50 with U-937 [2] (Homo sapiens, U-937) greater than 2000 µM. Besides, the CC50 in the assay with U-937 [3] is greater than 2000 µM.

In turn, `Cc1cc(=O)oc2c(O)c(O)ccc12` [4-METHYLDAPHNETIN] showed an Activity in the assay with U-937 [1] of 55%. The result with U-937 [5] and in the assay on U-937 [6] was Active. In the assay with U-937 [2] (Homo sapiens, U-937), this compound came in with an IC50 of 48.6 µM. In the assay on U-937 [3], this compound had a CC50 of 165 µM.

Regarding `Cc1cc(=O)oc2c(C)cccc12`, in the assay with U-937 [1], the Activity was 4.6%. Moreover, the IC50 in the assay with U-937 [2] (Homo sapiens, U-937) is greater than 2000 µM. In addition, the cytotoxic concentration (CC50) in the assay with U-937 [3] was greater than 2000 µM.

As to `Cc1cc(=O)oc2ccc(O)cc12`, the Activity with U-937 [1] came out at 3%. Also, the outcome in the assay on U-937 [4] was Active. In the assay on U-937 [2] (Homo sapiens, U-937), this compound returned an IC50 of 628 µM. In the assay on U-937 [3], the cytotoxic concentration (CC50) was greater than 2000 µM.

In the case of `Cc1ccc2oc(=O)cc(C)c2c1`, the Activity in the assay with U-937 [1] came to 4.3%. Besides, the IC50 in the assay with U-937 [2] (Homo sapiens, U-937) was greater than 2000 µM. The compound also gave a half-maximal cytotoxic concentration (CC50) in the assay with U-937 [3] greater than 2000 µM.

In the assay on U-937 [1], `Cc1ccc2c(C)cc(=O)oc2c1` showed an Activity of 5.3%. This compound returned an IC50 in the assay on U-937 [2] (Homo sapiens, U-937) greater than 2000 µM. This compound also yielded a CC50 in the assay with U-937 [3] greater than 2000 µM.

The compound `O=c1ccc2cc(O)c(O)cc2o1` [ESCULETIN] registered an Activity in the assay on U-937 [1] of 54.3%. In addition, the result in the assay on U-937 [7] was Active. The same compound had an IC50 in the assay with U-937 [2] (Homo sapiens, U-937) of 31.3 µM. In the assay with U-937 [3], this compound had a CC50 of 194 µM.
